# Entries after “also recorded” stand apart in the source; their conditions may differ.
# Assays:
# [1] = tested on: CD4+ Treg cells (Treg102, Treg164); experiment: Proliferation assay with dendritic cells: Treg suppression of naive CD4+ T cell proliferation ([3H]thymidine); assay type: cell-based, human; settings: with DCs and soluble anti-CD3; CpG-A 3 ug/ml
# Excerpt: Establishing Treg cell lines and purifying natural CD4^+ CD25^+ Treg cells CD4^+ Treg clones were established from CD4^+ tumor-infiltrating lymphocytes (TIL102 and TIL164) and maintained in RPMI 1640 medium containing 10% human AB serum and recombinant IL-2 (300 IU/ml) using methods well known in the art (See, e.g., H. Y. Wang et al., Immunity 20, 107-118 (2004)). Treg clones derived from TIL102 or TIL164 cells were pooled and designated Treg102 or Treg164. Naturally occurring CD4^+ CD25^+ Treg cells were obtained by sorting CD4^+ T cell populations from fresh PBMCs after staining with anti-CD4 and anti-CD25 antibodies. To obtain optimal expansion, the OKT3 expansion method was performed using methods well known in the art (See, e.g., H. Y. Wang et al., Immunity 20, 107-118 (2004)). T cell clones were maintained at a low IL-2 concentration (300 IU/ml). Melanoma cell lines and EBV-transformed B-cell lines used in this study were cultured in RPMI 1640 medium containing 10% FCS. Human embryonic kidney (HEK) 293 and Epstein-Barr virus (EBV)-transformed B cell lines were maintained in RPMI 1640 with 10% fetal calf serum (FCS).
# A. Proliferation assay with Dendritic Cells (DCs): Näive CD4^+ T cells were purified from PBMCs using microbeads (Miltenvi Biotec). DCs were generated from PBMC-derived monocytes in the presence of IL-4 (500 ng/ml) and GM-CSF (800 ng/ml) for 7 days. 1×105 näive CD4^+ T cells were cultured with regulatory T cells at different ratios (1: 0.2, 1:0.1 and 1:0.05) in 200 ul of medium containing 2×104 of DCs and anti-CD3 antibody (100 ng/ml) plus one of the following TLR ligands or cytokines: CpG-A (3 ug/ml), CpG-B (3 ug/ml), LPS (100 ng/ml), TNF.-α (20 ng/ml), IFN-α (100 ng/ml), or IL-6 (100 ng/ml). After 56 h of culture, [3H]thymidine was added at a final concentration of 1 uCi/well, followed by an additional 16 h. of culture. The incorporation of [^3H]thymidine was measured with a liquid scintillation counter, using methods well known in the art (See, e.g., M. K. Levings et al., J. Exp. Med. 196, 1335-46 (2002)). All experiments were performed in triplicate.
# Two CD4^+ Treg cell lines, designated Treg102 and Treg164, were generated with a panel of Treg cell clones derived from TIL102 and TIL164 cells. […] A functional proliferation assay was employed to examine whether CpG (a TLR9 ligand), LPS (a TLR4 ligand) or the cytokines IL-6 or IFN-α could regulate the suppressive activity of antigen specific human CD4^+ Treg cells in the presence of DCs. […]
# CD4+ Treg cells = experiment: Pretreatment of Treg cells, then proliferation assay with naive CD4+ T cells (without DCs); assay type: cell-based, human; settings: Treg cells pretreated 3 days, washed, then mixed with naive CD4+ T cells
# Description: C. Pretreatment of Treg cells: 1×10^6 Treg cells were cultured in medium containing CpG-A (3 ug/ml), CpG-B (3 ug/ml), LPS (100 ng/ml), TNF.-α (20 ng/ml), IFN-α (100 ng/ml) or IL-6 (100 ng/ml) for 3 days. After three washes, the pretreated Treg cells were cultured with näive CD4^+ T cells in anti-CD3 mAb-coated plates (without DCs) to determine their suppressive function. After 56 h of culture, [3H]thymidine was added at a final concentration of 1 uCi/well, and cultured for an additional 16 h. The incorporation of [^3H]thymidine was measured with a liquid scintillation counter.
# To exclude the possibility that the purified naive CD4^+ T cells might have been contaminated with a small number of monocytes or DCs, cultured CD4^+ Treg cells (100% purity) were pretreated with CpG-A (SEQ ID NO: 1) for 3 days. After three washes, the pretreated CD4^+ Treg cells were mixed with naive CD4^+ T cells in anti-CD3 antibody-coated plates to evaluate their ability to suppress the proliferation of naive CD4^+ T cells.
# To determine whether the CpG motif in CpG A confers the ability to reverse the suppressive function of CD4^+ Treg cells, CD4^+ Treg cell lines were pretreated for 3 days with CpG-A (SEQ ID NO: 1), non-CpG-A (CG changed to GC in CpG-A; SEQ ID NO: 3), CpG B (SEQ ID NO: 2) or non-CpG-B (CG changed to GC in CpG-B; SEQ ID NO: 4), and used them in proliferation assays following extensive washes.
# Treg cells were pretreated with Poly-G2 (SEQ ID NO: 15) in different concentrations of chloroquine to examine whether acidification is required for the function of guanosine containing oligonucleotides. After extensive washes, the pretreated Treg cells were used for functional assays.
substance,measurement,setting,value
G* GGGGACGATCGTCG* G*G*G*G*G [CpG-A],"proliferation of naive CD4+ T cells restored, % of normal levels",[1],50-80%
same,reversal of suppressive function of CD4+ Treg cells after pretreatment,CD4+ Treg cells,reverses their suppressive function; also recorded: reversed the suppressive effect; also recorded: reversed the suppressive activities of CD4^+ Treg cells equally well

# — patent publication US20090209620A1, “Direct Reversal Of The Suppressive Function Of CD4+Regulatory T Cells Via Toll-Like Receptor 8 Signaling” (priority 2005, published 2009)
